Measurements published in patent US7253295B2, “Chloride channel opener” (Sucampo AG, priority 2001, dated 2007).
Several values for one entry are separate records, joined by “and”; a condition that tells them apart may be missing. Equal entries are not always repeated.

Experiments:
[1] = system: AS-HBE cells; test: Short-circuit current in AS-HBE cells (Test Example 3); type: cell-based, human; conditions: 250 nM
Description: AS-HBE is a human bronchial epithelial (HBE) cell line expressing the first 131 nucleotides of CFTR in the antisense direction (antisense CFTR 16HBE14o- cells, HBE-AS; also called AS-HBE). As a result, AS-HBE cells lack CFTR transcripts and lack functional CFTR. However, AS-HBE cells do express functional ClC-2 in a manner identical to the parental cell line, 16HBE14o- cells, from which they were derived. AS-HBE cells were maintained at 37° C. in 5%/95% CO2/O2 in Minimal Essential Medium (MEM; GIBCO/Invitrogen, Carlsbad, Calif.) supplemented with Earl's salt, L-glutamine (GIBCO/Invitrogen), 10% heat-inactivated fetal bovine serum, 100 units/ml penicillin, 100 μg/ml streptomycin sulfate and 400 μg/ml G-418 (GIBCO/Invitrogen). The cells were grown in air-liquid interface on Biocoat inserts (Fisher Scientific, Chicago, Ill.), coated with human plasma fibronectine (GIBCO/Invitrogen) and vitrogen (Cohesion Technologies, Palo Alto, Calif.).
According to the same manner as described in Example 2, Short-circuit current measurements in the AS-HBE cells were carried out. Changes in short-circuit current (ΔIsc) were normalized to the filter area (0.3 cm^2) and reported as ΔIsc/cm^2.
Test compounds were used at a final concentration of 250 nM.

[2] = system: non-transfected HEK cells; test: Whole cell patch clamp, non-transfected HEK cells (Test Example 1); type: cell-based, human; conditions: for Effect on Cl currents in non-transfected cells (in words): 1 μM; for Cl channel activity: 1 μM in 1% DMSO, non-transfected HEK cells
Description: Whole cell patch clamp method was used to assess the effect of compound 1 (13,14-dihydro-15-keto-16,16-difluoro-PGE1) and compound 2 (13,14-dihydro-15-keto-16,16-difluoro-18 (S)-methyl-PGE1) on recombinant hClC-2 chloride channel. In this example, effects of the respective compounds on Human Epithelial Kidney (HEK) cells transfected with human ClC-2 (hClC-2) were examined, and the results were compared with those on non-transfected HEK cells.
ClC-2 transfected human epithelial kidney (HEK) cells were prepared and used. HEK-293 cells obtained from American Type Culture Collection (ATCC; Manassas, Va.) were transfected with His- and T7-tagged human ClC-2 cDNA in the mammalian expression vector pcDNA3.1 (GIBCO/Invitrogen) using Lipofectamine (GIBCO/Invitrogen) for 5 h at 37° C. in serum-free medium. Cells were then resuspended in the serum-containing medium and cultured in the presence of 300 μg/ml G-418 (GIBCO/Invitrogen). The surviving cells were then expanded, tested to confirm expression of Cl- current and ClC-2 mRNA, and the cells expressing ClC-2 mRNA were frozen to store. Upon studies, the stored cells were thawed and maintained at 37° C. in 5%/95% CO2/O2 in MEM (GIBCO/Invitrogen) supplemented with 5% inactivated horse serum, 0.1 mM nonessential amino acids, 2 mM L-glutamine, 1 mM sodium pyruvate, 100 units/ml penicillin, and 100 μg/ml streptomycin sulfate.
In the whole cell patch clamp measurements, currents were elicited by voltage clamp pulses (1500 ms duration) between +40 mV and −140 mV, in 20 mV increments, from the beginning holding potential of −30 mV. Currents were measured 50-100 ms after start of the pulse. The external solution was normal Tyrode solution containing 135 mM NaCl, 1.8 mM CaCl2, 1 mM MgCl2, 5.4 mM KCl, 10 mM glucose, and 10 mM HEPES (pH 7.35). The pipette solution was 130 mM CsCl, 1 mM MgCl2, 5 mM EGTA, and 10 mM HEPES (pH 7.35); also present in the pipette was 1 mM ATP—Mg^2+ (pH 7.4).
Pipettes were prepared from borosilicate glass and pulled by a two stage Narashige puller to give 1-1.5 MΩ resistance. Data were acquired with Axopatch CV-4 headstage with Digidata 1200 digitizer and Axopatch 1D amplifier. Data were analyzed using pClamp 6.04 (Axon Instruments, Foster City, Calif.), Lotus 123 (IBM) and Origin (Microcal) software.
Compound 1 and compound 2 were used at a final concentration of 1 μM in 1% DMSO.

[3] = system: 16HBE14o- cells; test: Short-circuit current in 16HBE14o- cells (Test Example 2); type: cell-based, Human; conditions: 1 μM, 1% DMSO
Description: 16HBE14o- cells, a Human airway cell line derived from a healthy individual, which contain ClC-2 and the Cystic Fibrosis Transmembrane Regulator, Cl channel (CFTR); and CFBE41o- cells, a Human airway cell line derived from cystic fibrosis patients, which contain functional form of ClC-2 and defective form of CFTR (ΔF508 CFTR) were used. Both cells were cultured in MEM supplemented with 10% FBS (Hyclone), […] 1-glutamine and penicillin/streptomycin in flasks coated with fibronectin/collagen/BSA. When desired, the cells were plated on 0.3 cm^2 collagen-coated permeable filters (Biocoat). After 24 hrs, the apical medium was removed so that the cells were grown in air-water interface. While they were grown in air-water interface, the basolateral side of the cells was fed with the medium and the medium was changed every other day. The cells were allowed to grow to confluence.
Short-circuit current measurements were used to evaluate Cl transport in polarized, confluent cultures of the cells grown in air-water interface. A plexiglass chamber for short-circuit current measurements in confluent cell monolayers grown on the 0.3 cm^2 permeable support filters was used (World Precision Instruments, Sarasota, Fla.). Electrical measurements were made with a 7402C voltage clamp device (Bioengineering Department, Iowa University). The temperature was held constant at 37° C. by circulating heated water through the water jacket of the chamber. The output of the amplifier was plotted on an analog chart recorder. Changes in short-circuit current (Δlsc) after addition of test compounds were normalized to filter area (0.3 cm^2) and reported as ΔIsc/cm^2.
Short-circuit current measurements in the 16HBE14o- and CFBE41o- cells were carried out as described by Lofling et al. (Am J Physiol, 277(4 Pt 1):L700-8, 1999, the cited reference is herein incorporated by reference). […] Both solutions were bubbled with CO2/O2 (5%/95%), which also served to help mix the solutions. In all cases, the basolateral membrane was permeabilized with 200 μg/ml nystatin. […]

In the case of `CC[C@H](C)CC(F)(F)C(=O)CC[C@H]1[C@H](O)CC(=O)[C@@H]1CCCCCCC(=O)O` [Compound 2, 13,14-dihydro-15-keto-16,16-difluoro-18(S)-Methyl-PGE1], the “Changes in short-circuit currents (Δlsc)” value [1] is reported as 9.0 μA/cm^2, the “Effect on Cl currents in non-transfected cells (in words)” value [2] is reported as “did not increase” and the Cl channel activity [2] is reported as 0.036 ± 0.010 nS/pF. The “Short-Circuit Current (change)” value [3] was 11.6±1.3 μA/cm^2 and the “Short-Circuit Current (change)” value ([3]; listed as compound 2) was 11.6 ± 1.3 μA/cm^2.

For `CCCCC(F)(F)[C@@]1(O)CC[C@H]2[C@@H](CC(=O)[C@@H]2CCCCCCC(=O)O)O1` [Compound 1, (−)-7-[(2R,4aR,5R,7aR)-2-(1,1-difluoropentyl)-2-hydroxy-6-oxoperhydrocyclopenta[b]pyran-5-yl]heptanoic acid], the “Changes in short-circuit currents (Δlsc)” value [1] was 4.3 μA/cm^2, the “Effect on Cl currents in non-transfected cells (in words)” value [2] was “did not increase” and the Cl channel activity [2] was 0.035 ± 0.014 nS/pF. The “Short-Circuit Current (change)” value [3] was 9.56±0.095 μA/cm^2 and 9.56 ± 0.95 μA/cm^2.
